Reference: US20040110802A1, “Antibacterial benzoic acid derivatives” (priority 2002, published 2004)
Converted amounts (≈) assume the structure as drawn.

What follows are compounds tested on SAUR 9218 (assay: MIC Test Method, standard agar dilution). Conditions: agar dilution, Mueller Hinton agar, incubated overnight at 35° C.; lowest concentration that inhibits visible growth.
Assay type: cell-based
Experimental: The in vitro MiCs of test compounds were determined by a standard agar dilution method. A stock drug solution of each analog was prepared in the preferred solvent, usually DMSO:H2O (1:3). Serial 2-fold dilutions of each sample are made using 1.0 ml aliquots of sterile distil]ed water. To each 1.0 ml aliquot of drug was added 9 ml of molten Mueller Hinton agar medium. The drug-supplemented agar was mixed, poured into 15×100 mm petri dishes, and allowed to solidify and dry prior to inoculation.
Vials of each of the test organisms are maintained frozen in the vapor phase of a liquid nitrogen freezer. Test cultures are grown overnight at 35° C. on the medium appropriate for the organism. Colonies are harvested with a sterile swab, and cell suspensions are prepared in Trypticase Soy broth (TSB) to equal the turbidity of a 0.5 McFamland standard. A 1:20 dilution of each suspension was made in TSB. The plates containing the drug supplemented agar are inoculated with a 0.001 ml drop of the cell suspension using a Steers replicator, yielding approximately 10^4 to 10^5 cells per spot. The plates are incubated overnight at 35° C.
Following incubation the Minimum Inhibitory Concentration (MIC μg/ml), the lowest concentration of drug that inhibits visible growth of the organism, was read and recorded.

| SMILES | SAUR 9218 MIC [mg/L] |
| --- | --- |
| Cc1sc(C(=O)Nc2ccc(C#N)cc2C(=O)O)cc1S(=O)(=O)N(C)C(C)C(O)c1ccccc1 (centres unmarked) [drawing 960] | 128 |

Same assay, conditions: agar dilution, Mueller Hinton agar, incubated overnight at 35° C.; lowest concentration that inhibits visible growth; read-out: SAUR 9218 MIC

| SMILES | MIC [mg/L] |
| --- | --- |
| N#Cc1ccc(NC(=O)c2cncc(Br)c2)c(C(=O)O)c1 | 8 (≈ 23.1 µM) |
| CC(=O)c1ccccc1-c1ccc2onc(C(=O)Nc3ccc(C#N)cc3C(=O)O)c2c1 | 0.5 (≈ 1.18 µM) |
| COCCOc1cccc2cc(C(=O)Nc3ccc(C#N)cc3C(=O)O)n(C)c12 | 0.25 (≈ 0.635 µM) |
| N#Cc1ccc(NC(=O)c2cc3cccc(NC(=O)CCC4CCCC4)c3[nH]2)c(C(=O)O)c1 | 0.25 (≈ 0.562 µM) |
| N#Cc1ccc(NC(=O)c2cncc(SCc3ccccc3)n2)c(C(=O)O)c1 | 64 (≈ 164 µM) |
| O=C(Nc1ccc(O)cc1C(=O)O)c1cc(-c2ccccc2Br)on1 | 0.125 (≈ 0.31 µM) |
| COc1ccc(OC)c(NC(=O)Nc2ccc3cc(C(=O)Nc4ccc(C#N)cc4C(=O)O)n(C)c3c2)c1 | 2 (≈ 3.89 µM) |
| N#Cc1ccc(NC(=O)c2cc3cccc4c3n2CC/C4=N\OCc2ccccc2)c(C(=O)O)c1 | 0.5 (≈ 1.08 µM) |
| O=C(Nc1ccc(Br)cc1C(=O)O)c1ncc(-c2ccco2)o1 | 2 (≈ 5.3 µM) |
| CCCC(=O)Nc1ccc2cc(C(=O)Nc3ccc(C#N)cc3C(=O)O)n(C)c2c1 | 1 (≈ 2.47 µM) |
| Cn1c(C(=O)Nc2ccc(C#N)cc2C(=O)O)cc2ccc(Br)c(N)c21 | 0.5 (≈ 1.21 µM) |
| O=C(Nc1ccc(Br)cc1C(=O)O)c1cccc(Br)n1 | 64 (≈ 160 µM) |
| Cc1sc(C(=O)Nc2ccc(Br)cc2C(=O)O)cc1S(=O)(=O)N1CC2CC1CN2Cc1ccccc1 (centres unmarked) | 16 (≈ 27.1 µM) |
| Cc1ccccc1-c1cc(C(=O)Nc2ccc(C#N)cc2C(=O)O)no1 | 0.25 (≈ 0.72 µM) |
| CCCCCCCCCSc1cnc(C(=O)Nc2ccc(C#N)cc2C(=O)O)cn1 | 2 (≈ 4.69 µM) |
| O=C(Nc1ccc(Br)cc1C(=O)O)c1cc(-c2ccccc2)on1 | 0.25 (≈ 0.646 µM) |
| N#Cc1ccc(NC(=O)c2cncc(-c3ccccc3C(F)(F)F)c2)c(C(=O)O)c1 | 2 (≈ 4.86 µM) |
| N#Cc1ccc(NC(=O)c2cc(-c3ccccc3OC3CCOCC3)on2)c(C(=O)O)c1 | 0.25 (≈ 0.577 µM) |
| CCCCCSc1ccc(C(=O)Nc2ccc(C#N)cc2C(=O)O)cn1 | 0.125 (≈ 0.338 µM) |
| COc1ccc(-c2cnc(C(=O)Nc3ccc(C#N)cc3C(=O)O)cn2)cn1 | > 128 |
| N#Cc1ccc(NC(=O)c2ccoc2)c(C(=O)O)c1 | > 128 |
| COc1ccc2cc(C(=O)Nc3ccc(C#N)cc3C(=O)O)n(C)c2c1 | 0.5 (≈ 1.43 µM) |
| Cc1cccc2cc(C(=O)Nc3ccc(C#N)cc3C(=O)O)[nH]c12 | 2 (≈ 6.26 µM) |
| O=C(Nc1ccc(Br)cc1C(=O)O)c1ccccn1 | > 128 |
| N#Cc1ccc(NC(=O)c2noc3ccc(NCC(O)CO)cc23)c(C(=O)O)c1 (centres unmarked) | 2 (≈ 5.05 µM) |
| Cn1c(C(=O)Nc2ccc(C#N)cc2C(=O)O)cc2ccc(OCC3CCC3)cc21 | 0.125 (≈ 0.31 µM) |
| CC(=O)Nc1ccc2onc(C(=O)Nc3ccc(C#N)cc3C(=O)O)c2c1 | 2 (≈ 5.49 µM) |

| SMILES | MIC [mg/L] |
| --- | --- |
| Cc1sc(C(=O)Nc2ccc(C#N)cc2C(=O)O)cc1S(=O)(=O)Nc1ccc2c(c1)CCC2 | 32 (≈ 66.5 µM) |
| CCN(CC)S(=O)(=O)c1ccc2onc(C(=O)Nc3ccc(Br)cc3C(=O)O)c2c1 | 0.25 (≈ 0.504 µM) |
| CN(C)c1ccc(CNS(=O)(=O)c2cc(C(=O)Nc3ccc(Br)cc3C(=O)O)cs2)cc1 | 64 (≈ 119 µM) |
| O=C(Nc1ccc(Br)cc1C(=O)O)c1ncc(-c2ccc3c(c2)OCO3)o1 | 2 (≈ 4.64 µM) |
| CC(=O)Nc1cccc(-c2cccc3cc(C(=O)Nc4ccc(C#N)cc4C(=O)O)n(C)c23)c1 | 0.5 (≈ 1.11 µM) |
| Cn1c(C(=O)Nc2ccc(C#N)cc2C(=O)O)cc2cccc(N(S(C)(=O)=O)S(C)(=O)=O)c21 | 0.125 (≈ 0.255 µM) |
| CCOC(=O)CC(=O)Nc1cccc2cc(C(=O)Nc3ccc(C#N)cc3C(=O)O)[nH]c12 | 0.5 (≈ 1.15 µM) |
| Cl.Cn1c(C(=O)Nc2ccc(C#N)cc2C(=O)O)cc2cccc(OCC(O)CNCc3cccs3)c21 (centres unmarked) | 0.5 |
| Cn1c(C(=O)Nc2ccc(C#N)cc2C(=O)O)cc2c(Br)ccc(NC(=O)Cc3ccccc3)c21 | 2 (≈ 3.76 µM) |
| N#Cc1ccc(NC(=O)c2nnc(SCc3ccccc3)s2)c(C(=O)O)c1 | 0.125 (≈ 0.315 µM) |
| CCCCOc1ccc(C(=O)Nc2cccc3cc(C(=O)Nc4ccc(C#N)cc4C(=O)O)[nH]c23)cc1 | 2 (≈ 4.03 µM) |
| N#Cc1ccc(NC(=O)c2cc3cccc(NC(=O)C4CCOC4)c3[nH]2)c(C(=O)O)c1 (centres unmarked) | 2 (≈ 4.78 µM) |
| O=C(O)c1cc(Cl)ccc1NC(=O)c1cc2ccccc2n1Cc1ccccc1 | 4 (≈ 9.88 µM) |
| Cc1ccccc1-c1ccc2c(C(=O)Nc3ccc(C#N)cc3C(=O)O)noc2c1 | 0.06 (≈ 0.151 µM) |
| N#Cc1ccc(NC(=O)c2noc3ccc(N)cc23)c(C(=O)O)c1 | 0.5 (≈ 1.55 µM) |
| Cc1c(S(=O)(=O)NCCc2ccc(N)cc2)csc1C(=O)Nc1ccc(Br)cc1C(=O)O | 8 (≈ 14.9 µM) |
| CCC1CCCCN1S(=O)(=O)c1cc(C(=O)Nc2ccc(C#N)cc2C(=O)O)sc1C (centres unmarked) | 2 (≈ 4.33 µM) |
| CC(=O)Nc1ccc2cc(C(=O)Nc3ccc(C#N)cc3C(=O)O)n(C)c2c1 | 1 (≈ 2.66 µM) |
| COc1ccccc1-c1cc(C(=O)Nc2ccc(Br)cc2C(=O)O)no1 | 0.125 (≈ 0.3 µM) |
| N#Cc1ccc(NC(=O)c2nsc(-c3ccccc3)c2Cl)c(C(=O)O)c1 | 0.5 (≈ 1.3 µM) |
| CCCCCSc1cnc(C(=O)Nc2ccc(C#N)cc2C(=O)O)cn1 | 0.125 (≈ 0.337 µM) |
| Cc1noc(-c2ccccc2)c1C(=O)Nc1cccc2cc(C(=O)Nc3ccc(C#N)cc3C(=O)O)[nH]c12 | 0.5 (≈ 0.989 µM) |
| CCCCn1c(C(=O)Nc2ccc(Br)cc2C(=O)O)cc2ccccc21 | 4 (≈ 9.63 µM) |
| Cn1c(C(=O)Nc2ccc(C#N)cc2C(=O)O)cc2cccc(OC[C@H](O)CO)c21 | 0.5 (≈ 1.22 µM) |
| CS(=O)(=O)c1ccc(-c2ccc3onc(C(=O)Nc4ccc(C#N)cc4C(=O)O)c3c2)cc1 | 0.5 (≈ 1.08 µM) |
| Cc1noc(C)c1-c1ccc2cc(C(=O)Nc3ccc(C#N)cc3C(=O)O)n(C)c2c1 | 1 (≈ 2.41 µM) |
| COC(=O)CCCCCCC(=O)Nc1cccc2cc(C(=O)Nc3ccc(C#N)cc3C(=O)O)[nH]c12 | 1 (≈ 2.04 µM) |

| SMILES | MIC [mg/L] |
| --- | --- |
| Cc1sc(C(=O)Nc2ccc(Br)cc2C(=O)O)cc1S(=O)(=O)N1CCN(c2cccc(C(F)(F)F)c2)CC1 | 32 (≈ 50.6 µM) |
| Cc1sc(C(=O)Nc2ccc(Br)cc2C(=O)O)cc1S(=O)(=O)N1CCc2ccc(Cl)cc21 | 1 (≈ 1.8 µM) |
| N#Cc1ccc(NC(=O)c2cc3cccc(NC(=O)c4cccc(S(=O)(=O)N5CCOCC5)c4)c3[nH]2)c(C(=O)O)c1 | 0.5 (≈ 0.872 µM) |
| N#Cc1ccc(NC(=S)c2cc(-c3ccccc3F)on2)c(C(=O)O)c1 | 0.5 (≈ 1.36 µM) |
| N#Cc1ccc(NC(=O)c2ncc(-c3ccccc3)o2)c(C(=O)O)c1 | 0.5 (≈ 1.5 µM) |
| COCCNc1ccc2onc(C(=O)Nc3ccc(C#N)cc3C(=O)O)c2c1 | 1 (≈ 2.63 µM) |
| Cc1c(S(=O)(=O)NCCCn2ccnc2)csc1C(=O)Nc1ccc(Br)cc1C(=O)O | > 128 |
| N#Cc1ccc(NC(=O)c2cc3cccc4c3n2CCC4=O)c(C(=O)O)c1 | 1 (≈ 2.78 µM) |
| Cn1c(C(=O)Nc2ccc(C#N)cc2C(=O)O)cc2c(Br)ccc(N)c21 | 1 (≈ 2.42 µM) |
| Cn1c(C(=O)Nc2ccc(C#N)cc2C(=O)O)cc2cccc(OCC(O)COCC(O)CO)c21 (centres unmarked) | 2 (≈ 4.14 µM) |
| CCCCN(CCO)S(=O)(=O)c1cc(C(=O)Nc2ccc(C#N)cc2C(=O)O)sc1C | 32 (≈ 68.7 µM) |
| CN(c1ccc(Cl)cc1)S(=O)(=O)c1cc(C(=O)Nc2ccc(Br)cc2C(=O)O)c[n+]([O-])c1 | 8 (≈ 14.8 µM) |
| CCOCC(O)COc1cccc2cc(C(=O)Nc3ccc(C#N)cc3C(=O)O)n(C)c12 (centres unmarked) | 0.25 (≈ 0.571 µM) |
| C=CCn1c(C(=O)Nc2ccc(Cl)cc2C(=O)O)cc2ccccc21 | 1 (≈ 2.82 µM) |
| N#Cc1ccc(NC(=O)c2noc3ccc(NS(=O)(=O)c4ccc(F)cc4)cc23)c(C(=O)O)c1 | 0.125 (≈ 0.26 µM) |
| Cn1nc(-c2c(F)cccc2F)cc1C(=O)Nc1ccc(Br)cc1C(=O)O | 128 (≈ 293 µM) |
| N#Cc1ccc(NC(=O)c2cc3cccc(NC(=O)C45CC6CC(CC(C6)C4)C5)c3[nH]2)c(C(=O)O)c1 | 16 (≈ 33.2 µM) |
| Cc1sc(C(=O)Nc2ccc(C#N)cc2C(=O)O)cc1S(=O)(=O)N(CCC#N)Cc1ccccc1 | 64 (≈ 126 µM) |
| O=C(Nc1ccc(Br)cc1C(=O)O)c1ccsc1 | > 128 |
| CCC(CC)C(=O)Nc1cccc2cc(C(=O)Nc3ccc(C#N)cc3C(=O)O)[nH]c12 | 1 (≈ 2.39 µM) |
| N#Cc1ccc(NC(=O)c2cc3cccc(NC(=O)Cc4ccc(F)cc4)c3[nH]2)c(C(=O)O)c1 | 0.25 (≈ 0.548 µM) |
| CCOP(=O)(Cc1ccc(NS(=O)(=O)c2cc(C(=O)Nc3ccc(Br)cc3C(=O)O)sc2C)cc1)OCC | 64 (≈ 99.1 µM) |
| O=C(Nc1ccc(Cl)cc1C(=O)O)c1cc(-c2ccccc2)on1 [drawing 1106] | 1 (≈ 2.92 µM) |
| CC1(C)OCC(CCc2cc(C(=O)Nc3ccc(Br)cc3C(=O)O)no2)O1 (centres unmarked) | 4 (≈ 9.11 µM) |
| N#Cc1ccc(NC(=O)c2cc3cccc(N4C(=O)c5ccccc5C4=O)c3[nH]2)c(C(=O)O)c1 | 8 (≈ 17.8 µM) |
